Reference: ChEMBL document CHEMBL6109064, “Functional and structural polypharmacology of indazole-based privileged ligands to tackle the undruggability of membrane transporters” (Eur J Med Chem, 2025)

Columns and labels:
A549 = experiment: Cytotoxicity against MCT1 expressing human A549 cells assessed as inhibition of cell growth incubated for 72 hrs by MTT assay; type: functional
MCF7 = experiment: Cytotoxicity against MCT1 expressing human MCF7 cells assessed as inhibition of cell growth incubated for 72 hrs by MTT assay; type: functional
[1] = molecular target: T1, Broad substrate specificity ATP-binding cassette transporter ABCG2 (Homo sapiens, UniProt Q9UNQ0); experiment: Ratio of IC50 for inhibition of ABCG2 (unknown origin) expressed in dog MDCK-II-BCRP cells using pheophorbide as tracer to EC50 for reversal of ABCG2 (unknown origin)-mediated multidrug resistance transfected in dog MDCK-II-BCRP cells in presence of SN-38; type: cell-based
T1 sequence (Q9UNQ0 whole entry): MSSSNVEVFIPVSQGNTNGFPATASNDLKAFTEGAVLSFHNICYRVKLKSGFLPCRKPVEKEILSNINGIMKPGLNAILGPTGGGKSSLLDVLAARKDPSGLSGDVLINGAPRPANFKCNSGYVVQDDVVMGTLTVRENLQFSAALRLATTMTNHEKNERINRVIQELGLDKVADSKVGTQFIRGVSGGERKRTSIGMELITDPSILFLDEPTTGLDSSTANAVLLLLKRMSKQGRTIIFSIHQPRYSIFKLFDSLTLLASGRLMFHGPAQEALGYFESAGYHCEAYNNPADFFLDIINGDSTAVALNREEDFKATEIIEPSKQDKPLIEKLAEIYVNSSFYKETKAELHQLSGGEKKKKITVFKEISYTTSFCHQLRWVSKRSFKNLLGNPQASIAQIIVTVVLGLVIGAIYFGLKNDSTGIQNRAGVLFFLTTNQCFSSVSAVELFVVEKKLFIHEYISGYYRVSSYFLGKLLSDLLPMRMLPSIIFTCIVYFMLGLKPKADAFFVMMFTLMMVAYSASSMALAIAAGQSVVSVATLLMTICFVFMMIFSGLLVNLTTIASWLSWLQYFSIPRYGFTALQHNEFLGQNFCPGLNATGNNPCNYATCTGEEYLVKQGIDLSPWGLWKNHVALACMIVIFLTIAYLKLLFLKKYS

[2] = molecular target: T1, Broad substrate specificity ATP-binding cassette transporter ABCG2; experiment: Ratio of IC50 for inhibition of ABCG2 (unknown origin) expressed in dog MDCK-II-BCRP cells using Hoechst 33342 as tracer to EC50 for reversal of ABCG2 (unknown origin)-mediated multidrug resistance transfected in dog MDCK-II-BCRP cells in presence of SN-38; type: cell-based
[3] = molecular target: T2, Monocarboxylate transporter 4 (Homo sapiens) (UniProt O15427); experiment: Reversal of MCT4-mediated multidrug resistance in human MDA-MB-231 cells assessed as fold increase in doxorubicin-mediated cytotoxicity incubated for 72 hrs in presence of doxorubicin by MTT assay relative to control; type: cell-based
T2 sequence (whole entry): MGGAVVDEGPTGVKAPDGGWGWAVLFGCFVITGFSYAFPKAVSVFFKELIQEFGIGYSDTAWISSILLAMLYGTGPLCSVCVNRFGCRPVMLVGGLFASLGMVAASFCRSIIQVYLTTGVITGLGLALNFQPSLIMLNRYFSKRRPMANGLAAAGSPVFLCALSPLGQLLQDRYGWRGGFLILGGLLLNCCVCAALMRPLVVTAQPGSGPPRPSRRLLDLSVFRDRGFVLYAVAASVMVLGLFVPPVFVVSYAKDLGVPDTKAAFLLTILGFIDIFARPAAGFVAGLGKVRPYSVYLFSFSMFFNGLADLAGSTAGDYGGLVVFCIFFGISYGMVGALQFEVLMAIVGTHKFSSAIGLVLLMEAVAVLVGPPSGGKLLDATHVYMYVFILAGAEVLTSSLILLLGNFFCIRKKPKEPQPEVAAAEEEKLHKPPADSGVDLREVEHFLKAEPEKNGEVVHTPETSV

MDA-MB-231 = experiment: Cytotoxicity against human MDA-MB-231 cells assessed as inhibition of cell growth by MTT assay; type: functional
[4] = molecular target: T3, Monocarboxylate transporter 1 (Homo sapiens, UniProt P53985); experiment: Inhibition of MCT-1 in human A549 cells assessed as potentiation of 3-BP-mediated cytotoxicity by measuring decrease in cell viability incubated for 72 hrs in presence of 3-BP by MTT assay; type: cell-based
T3 sequence (P53985 whole entry): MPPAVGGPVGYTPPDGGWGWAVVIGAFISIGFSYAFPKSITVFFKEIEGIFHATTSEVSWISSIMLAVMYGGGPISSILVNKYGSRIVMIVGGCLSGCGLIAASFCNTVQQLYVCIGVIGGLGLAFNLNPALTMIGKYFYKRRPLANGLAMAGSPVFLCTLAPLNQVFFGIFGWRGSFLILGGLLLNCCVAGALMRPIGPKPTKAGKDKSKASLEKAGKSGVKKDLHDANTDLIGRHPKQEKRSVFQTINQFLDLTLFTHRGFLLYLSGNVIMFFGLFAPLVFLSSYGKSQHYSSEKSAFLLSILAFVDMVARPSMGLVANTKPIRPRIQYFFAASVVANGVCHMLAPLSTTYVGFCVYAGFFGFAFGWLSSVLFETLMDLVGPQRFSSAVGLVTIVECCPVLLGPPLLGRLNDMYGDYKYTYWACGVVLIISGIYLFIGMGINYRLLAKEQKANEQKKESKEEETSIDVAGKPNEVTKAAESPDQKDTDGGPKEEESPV

[5] = molecular target: T1, Broad substrate specificity ATP-binding cassette transporter ABCG2; experiment: Reversal of ABCG2 (unknown origin)-mediated multidrug resistance transfected in dog MDCK-II-BCRP cells assessed as increase in SN-38-mediated cytotoxicity incubated for 72 hrs in presence of SN-38 by MTT assay; type: cell-based

Row | Compound | GI50 (A549) | GI50 (MCF7) | Ratio IC50/EC50 [1] | Ratio IC50/EC50 [2] | fold change (FC) [3] | GI50 (MDA-MB-231) | IC50 [4] | EC50 [5]
1 | O=C(Cn1nc(C(=O)Nc2cccnc2)c2ccccc21)Nc1ccc(Cl)cc1 | 28.6 µM | 10.8 µM | > 13 | > 5 | 3.85 | 30 µM |  | 
2 | O=C(Cn1nc(C(=O)Nc2ccccn2)c2ccccc21)Nc1cc(Cl)ccc1Cl | 37.1 µM |  |  |  | 3.52 | 29.9 µM |  | 
3 | COc1cccc(NC(=O)Cn2nc(C(=O)Nc3cccc(OC)c3)c3ccccc32)c1 |  |  |  |  |  |  | Not_active | Not_active
4 | COc1cccc(NC(=O)c2nn(CC(=O)Nc3ccccc3OC)c3ccccc23)c1 |  |  |  |  |  |  | Not_active | 
